Test results published in ChEMBL document CHEMBL1201862, “PubChem BioAssay data set” (2004).
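Briefly, cells in 96-well plates were exposed to five compound concentrations for 48 h, and endpoints were estimated by linear interpolation. Here, GI50 denotes the concentration required for 50% inhibition of growth.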 The source made the active and inactive calls. Rule as the data show it: active = GI50 up to about 1.1 µM and inactive = higher.

Columns and labels:
Assay in all cases: DTP human tumour cell line panel, 48 h
[1] = tested on: A549
[2] = tested on: OVCAR-3
[3] = tested on: SW-620
[4] = tested on: 786-0
[5] = tested on: UACC-257
[6] = tested on: HCC 2998
[7] = tested on: SN12C
[8] = tested on: RPMI-8226
[9] = tested on: DU-145
[10] = tested on: SK-OV-3
[11] = tested on: TK-10
[12] = tested on: U-251
[13] = tested on: SF-539
[14] = tested on: CCRF-CEM
[15] = tested on: SF-295
[16] = tested on: HL-60
[17] = tested on: M14
[18] = tested on: T47D
[19] = tested on: KM12
[20] = tested on: HOP-62
[21] = tested on: UO-31
[22] = tested on: HCT-116
[23] = tested on: RXF 393
[24] = tested on: MOLT-4
[25] = tested on: Hs-578T
[26] = tested on: NCI-H460
[27] = tested on: Malme-3M
[28] = tested on: OVCAR-5
[29] = tested on: OVCAR-8
[30] = tested on: SK-MEL-5
[31] = tested on: EKVX
[32] = tested on: NCI-H226
[33] = tested on: COLO 205
[34] = tested on: MCF7
[35] = tested on: IGROV-1
[36] = tested on: LOX IMVI
[37] = tested on: SK-MEL-28
[38] = tested on: PC-3
[39] = tested on: HCT-15
[40] = tested on: MDA-MB-231
[41] = tested on: MDA-MB-435
[42] = tested on: SF-268
[43] = tested on: CAKI-1
[44] = tested on: SNB-75
[45] = tested on: SR
[46] = tested on: HT-29
[47] = tested on: UACC-62
[48] = tested on: SK-MEL-2
[49] = tested on: SNB-19
[50] = tested on: K562
[51] = tested on: MDA-N
[52] = tested on: OVCAR-4
[53] = tested on: NCI/ADR-RES
[54] = tested on: ACHN
[55] = tested on: NCI-H23
[56] = tested on: NCI-H522
[57] = tested on: HOP-92
[58] = tested on: A498

N=c1[nH]cnc2c1nnn2C1C=CC(COS(N)(=O)=O)C1 (configuration not stated)
GI50 [1]: 10.5 µM (inactive) | GI50 [2]: 10.7 µM (inactive) | GI50 [3]: 11.6 µM (inactive) | GI50 [4]: 2.19 µM (inactive) | GI50 [5]: 14.7 µM (inactive) | GI50 [6]: 6.53 µM (inactive) | GI50 [7]: 15.9 µM (inactive) | GI50 [8]: 3.59 µM (inactive) | GI50 [9]: 7.08 µM (inactive) | GI50 [10]: 24.6 µM (inactive) | GI50 [11]: 3.18 µM (inactive) | GI50 [12]: 4.15 µM (inactive) | GI50 [13]: 1.85 µM (inactive) | GI50 [14]: 13.2 µM (inactive) | GI50 [15]: 16.7 µM (inactive) | GI50 [16]: 3.42 µM (inactive) | GI50 [17]: 7 µM (inactive) | GI50 [18]: 3.94 µM (inactive) | GI50 [19]: 9.68 µM (inactive) | GI50 [20]: 9.91 µM (inactive) | GI50 [21]: 5.62 µM (inactive) | GI50 [22]: 5.24 µM (inactive) | GI50 [23]: 8.45 µM (inactive) | GI50 [24]: 15.6 µM (inactive) | GI50 [25]: 1.87 µM (inactive) | GI50 [26]: 6.87 µM (inactive) | GI50 [27]: 15.8 µM (inactive) | GI50 [28]: 3.37 µM (inactive) | GI50 [29]: 2.38 µM (inactive) | GI50 [30]: 3.13 µM (inactive) | GI50 [31]: 28.9 µM (inactive) | GI50 [32]: 4.43 µM (inactive) | GI50 [33]: 3.59 µM (inactive) | GI50 [34]: 10.4 µM (inactive) | GI50 [35]: 14.4 µM (inactive) | GI50 [36]: 4.56 µM (inactive) | GI50 [37]: 3.21 µM (inactive) | GI50 [38]: 3.93 µM (inactive) | GI50 [39]: 6.5 µM | GI50 [40]: 8.07 µM (inactive) | GI50 [41]: 4.24 µM (inactive) | GI50 [42]: 10.7 µM (inactive) | GI50 [43]: 1.25 µM (inactive) | GI50 [44]: 4.05 µM (inactive) | GI50 [45]: 18 µM (inactive) | GI50 [46]: 7.33 µM (inactive) | GI50 [47]: 3.37 µM (inactive) | GI50 [48]: 3.01 µM (inactive) | GI50 [49]: 4.56 µM (inactive) | GI50 [50]: 5.47 µM (inactive) | GI50 [51]: 3.94 µM (inactive) | GI50 [52]: 6.84 µM (inactive) | GI50 [53]: 5.2 µM (inactive) | GI50 [54]: 4.65 µM (inactive) | GI50 [55]: 1.95 µM (inactive)

Oc1ccc(Cl)cc1CN1CCN(Cc2cc(Cl)ccc2O)C1
GI50 [1]: 1.75 µM (inactive) | GI50 [2]: 0.367 µM (active) | GI50 [3]: 0.547 µM (active) | GI50 [4]: 0.203 µM (active) | GI50 [5]: 1.86 µM (inactive) | GI50 [6]: 1.03 µM (active) | GI50 [7]: 1.11 µM (active) | GI50 [8]: 2.27 µM (inactive) | GI50 [9]: 1.92 µM (inactive) | GI50 [10]: 2.3 µM (inactive) | GI50 [11]: 1.55 µM (inactive) | GI50 [12]: 1.11 µM (active) | GI50 [56]: 3.31 µM (inactive) | GI50 [13]: 0.946 µM (active) | GI50 [14]: 0.0603 µM (active) | GI50 [15]: 0.682 µM (active) | GI50 [16]: 2.02 µM (inactive) | GI50 [17]: 0.553 µM (active) | GI50 [18]: 1.84 µM (inactive) | GI50 [19]: 1.08 µM (active) | GI50 [20]: 0.617 µM (active) | GI50 [21]: 0.536 µM (active) | GI50 [22]: 0.234 µM (active) | GI50 [23]: 0.895 µM (active) | GI50 [24]: 0.174 µM (active) | GI50 [57]: 1.15 µM (inactive) | GI50 [25]: 3.82 µM (inactive) | GI50 [26]: 0.218 µM (active) | GI50 [27]: 2.17 µM (inactive) | GI50 [28]: 5.09 µM (inactive) | GI50 [29]: 0.525 µM (active) | GI50 [30]: 0.973 µM (active) | GI50 [31]: 1.57 µM (inactive) | GI50 [32]: 1.39 µM (inactive) | GI50 [33]: 1.45 µM (inactive) | GI50 [34]: 10.5 µM (inactive) | GI50 [35]: 1.89 µM (inactive) | GI50 [36]: 0.489 µM (active) | GI50 [37]: 1.65 µM (inactive) | GI50 [38]: 0.206 µM (active) | GI50 [40]: 0.403 µM (active) | GI50 [41]: 1.33 µM (inactive) | GI50 [42]: 1.09 µM (active) | GI50 [43]: 1.88 µM (inactive) | GI50 [44]: 1.52 µM (inactive) | GI50 [46]: 1.87 µM (inactive) | GI50 [47]: 1.85 µM (inactive) | GI50 [48]: 1.73 µM (inactive) | GI50 [49]: 2.86 µM (inactive) | GI50 [50]: 1.39 µM (inactive) | GI50 [51]: 1.79 µM (inactive) | GI50 [52]: 1.3 µM (inactive) | GI50 [53]: 0.152 µM (active) | GI50 [58]: 16 µM (inactive) | GI50 [54]: 0.465 µM (active) | GI50 [55]: 1.19 µM (inactive)

N#CSC/C(Cl)=C/Cl.N#CSC/C(Cl)=C\Cl
GI50 [1]: > 100 µM (inactive) | GI50 [2]: > 100 µM (inactive) | GI50 [3]: > 100 µM (inactive) | GI50 [4]: > 100 µM (inactive) | GI50 [5]: > 100 µM (inactive) | GI50 [6]: 0.069 µM (active) | GI50 [7]: > 100 µM (inactive) | GI50 [8]: 92.3 µM (inactive) | GI50 [9]: > 100 µM (inactive) | GI50 [10]: > 100 µM (inactive) | GI50 [11]: > 100 µM (inactive) | GI50 [12]: > 100 µM (inactive) | GI50 [56]: > 100 µM (inactive) | GI50 [13]: > 100 µM (inactive) | GI50 [14]: 34.8 µM (inactive) | GI50 [15]: > 100 µM (inactive) | GI50 [16]: 43.9 µM (inactive) | GI50 [17]: > 100 µM (inactive) | GI50 [18]: > 100 µM (inactive) | GI50 [19]: > 100 µM (inactive) | GI50 [20]: > 100 µM (inactive) | GI50 [21]: > 100 µM (inactive) | GI50 [22]: > 100 µM (inactive) | GI50 [23]: > 100 µM (inactive) | GI50 [24]: 29.7 µM (inactive) | GI50 [57]: > 100 µM (inactive) | GI50 [25]: > 100 µM (inactive) | GI50 [26]: > 100 µM (inactive) | GI50 [27]: > 100 µM (inactive) | GI50 [28]: 63.2 µM (inactive) | GI50 [29]: > 100 µM (inactive) | GI50 [30]: > 100 µM (inactive) | GI50 [31]: > 100 µM (inactive) | GI50 [32]: > 100 µM (inactive) | GI50 [33]: > 100 µM (inactive) | GI50 [35]: > 100 µM (inactive) | GI50 [36]: 20.4 µM (inactive) | GI50 [37]: > 100 µM (inactive) | GI50 [38]: > 100 µM (inactive) | GI50 [39]: > 100 µM | GI50 [40]: > 100 µM (inactive) | GI50 [41]: > 100 µM (inactive) | GI50 [42]: > 100 µM (inactive) | GI50 [44]: > 100 µM (inactive) | GI50 [45]: > 100 µM (inactive) | GI50 [46]: > 100 µM (inactive) | GI50 [47]: > 100 µM (inactive) | GI50 [48]: > 100 µM (inactive) | GI50 [49]: > 100 µM (inactive) | GI50 [50]: > 100 µM (inactive) | GI50 [51]: > 100 µM (inactive) | GI50 [52]: > 100 µM (inactive) | GI50 [53]: > 100 µM (inactive) | GI50 [58]: > 100 µM (inactive) | GI50 [54]: > 100 µM (inactive) | GI50 [55]: > 100 µM (inactive)
